In patent publication US20050176746A1, “Use of compounds that are effective as selective opiate receptor modulators” (priority 2002, published 2005):

Experiments:
healthy subjects = experiment: Satiety test (nutrient drink; maximum volume ingested and postprandial symptoms), Phase I study, 7-day treatment; type: in vivo, human
Excerpt: (§1) A a single center, randomized, double-blind, placebo controlled, parallel group Phase I study has been performed. The trial evaluates the effects of a 7-day treatment with 2 different doses of the peripherally selective opiate receptor modulator asimadoline (N-methyl-N-[(1S)-1-phenyl-2-((3S)-3-hydroxypyrrolidin-1-yl)ethyl]-2,2-diphenylacetamide hydrochloride, EMD 61 753) on gastrointestinal and colonic transit and sensorimotor functions in healthy subjects in comparison to placebo.
All subjects have undergone a satiety test prior to and under medication, a scintigraphic gastric and colonic transit test, and, after overnight bowel preparation, a barostat test assessing colonic compliance and colonic sensation prior to and under medication, and fasting colonic tone and colonic response to a standardized meal under medication.
Specific aims of this study have been the comparison of the effects of 7 day treatment with placebo and three doses of asimadoline as described above on: • satiety after ingestion of a nutrient drink • colonic aggregate sensation score in response to distension in healthy subjects • thresholds for colonic sensation of gas and pain in response to distension in healthy subjects • fasting colonic compliance and tone • postprandial tonic response to standard meal ingestion
(§2) A further aim of the study was to compare the gastrointestinal and colonic transit profiles during the 7-day treatment. The studies on lower dosage (0.15 mg/kg and 0.5 mg/kg versus placebo) were performed separately as Part A and the studies on higher dosage (1.5 mg/kg versus placebo) were performed separately as Part B of the studies (see FIGS. 1 to 4).
The primary endpoint in the satiety test is difference to baseline in the aggregate satiety score 30 min after full satiety.
The analysis of primary motility endpoints (gastric residual percent at 2 hrs, colonic filling (CF) percent at 6 hrs. and colonic geometric center at 24 hrs)and the maximum satiety volume (at day 5) is based on one-way analysis of variance or analysis of covariance methods. The proportions (GE at 2 hrs and CF at 6 hrs)may warrant transformation (e.g., sin^−1{square root}) prior to analysis to stabilize variation across treatment groups. Analysis of the satiety volumes incorporates the baseline value as a covariate in addition to BMI; or alternatively, the relative changes (log [day 5 volume/baseline volume]) are analyzed with BMI as a covariate.

[1] = test system: colon of healthy subjects; experiment: Barostat test (intubated colonic procedure: fasting colonic volume, sensation and pain to distension), Phase I study, 7-day treatment; type: in vivo, human; parameters: key to sensation to distension (VAS score) / pain to distension (VAS score): 100 mm visual analog scale
Excerpt: as §1, §2
All subjects are presented to the General Clinical Research Center at Charlton 7, General Clinical Research Center, on visit 3 after overnight bowel preparation with the oral colonic lavage solution (2-5 L of polyethylene glycol 3350 and electrolyte solution, NuLytely™, Abbott Laboratories, Chicago. IL), and a 12-hour fast.
Flexible colonoscopy is performed to evaluate the left side of the colon and to place a teflon guidewire into the proximal colon under fluoroscopic control. The endoscope is withdrawn.
A barostat catheter is inserted into the colon along the guidewire so that the barostat balloon is located in the upper sigmoid or descending colon. The catheter is connected to a barostat machine using an infinitely compliant 10-cm long balloon with a maximum volume of 600 cc (Hefty Baggies, Mobil Chemical Co., Pittsford, N.Y.) linked to an electronic barostat (Mayo rigid barostat, Mayo Foundation Engineering Department, Rochester, Minn.) which has a rigid piston. The manometric portion comprises six waterperfused (0.4 ml/min) pneumohydraulic sensors, three in the descending colon (sensor numbers 1-3) and three in the sigmoid colon (sensor numbers 4-6). The manometric sensors are 5 cm apart, while the first and second sensors are 5 cm oral and caudal to the balloon respectively. To decrease the effects of abdominal viscera on the balloon volume, the studies are performed with the subjects in a semi-prone position during the entire duration of the study.
Previous studies have shown that an initial “conditioning” distension to 20 mmHg renders subsequent assessments of compliance and perception more reproducible [15. 47. 48]. Following the conditioning distension, colonic compliance and sensory thresholds are measured by ramp inflation with increments of 4 mmHg, o steps at 30 second intervals from 0 to 44 mmHg; thresholds for first sensation and sensation of pain are thus determined using the ascending method of limits.
Immediately prior to assessment of colonic sensation, four 100 mm visual analog scales (VAS) scales using the anchor points “tired-energetic”, “peaceful-tense” and “worried-relaxed” and “active-drowsy” are used to determine the level of arousal, anxiety or stress being experienced by the subject. […] Subsequently, randomized-order phasic distensions at 8, 16, 24, and 32 mm Hg above operating pressure are applied to measure the sensations of gas or pain.
For rating sensory perception, the participants are asked to mark two separate VAS for abdominal pain and feeling of gas at a standardized time, 20 seconds after the distension had commenced. The VAS are anchored at the ends by the descriptions “unnoticeable” and “unbearable”. During assessment of sensation, verbal interaction between the subject and investigator is minimized.
Colonic sensation is assessed before and 1 h after drug administration during the measurement of colonic compliance. This is equivalent to finding the threshold pressures or the initial perception and pain perception during sequential pressure increments using the ascending method of limits.
The participant is allowed to rest for 15 minutes. […]

Structure (SMILES): CN(C(=O)C(c1ccccc1)c1ccccc1)[C@H](CN1CC[C@H](O)C1)c1ccccc1.Cl [asimadoline, N-methyl-N-[(1S)-1-phenyl-2-((3S)-3-hydroxypyrrolidin-1-yl)ethyl]-2,2-diphenylacetamide hydrochloride]
- maximum ingested volume versus placebo (in words) (healthy subjects; 0.15 mg/kg): increase the maximum ingested volume slightly versus placebo
- aggregate postprandial symptoms (VAS score) (healthy subjects; 0.15 mg/kg, Part A (placebo 180)): 187
- maximum volume ingested (satiety test) (healthy subjects; 0.15 mg/kg, study Part A (placebo 1280 ml)): 1425 mL
- maximum ingested volume versus placebo (in words) (healthy subjects; 0.5 mg/kg): increase the maximum ingested volume significantly versus placebo
- aggregate postprandial symptoms (VAS score) (healthy subjects; 0.5 mg/kg, Part A (placebo 180)): 170
- maximum volume ingested (satiety test) (healthy subjects; 0.5 mg/kg, study Part A (placebo 1280 ml)): 1470 mL
- postprandial symptoms with higher ingested volume (in words) (healthy subjects; 1.5 mg/kg): symptoms increased with increased volume ingested
- aggregate postprandial symptoms (VAS score) (healthy subjects; 1.5 mg/kg, Part B (placebo 162)): 192
- maximum volume ingested (satiety test) (healthy subjects; 1.5 mg/kg, study Part B (placebo 1300 ml)): 1390 mL
- postprandial symptoms with higher ingested volume (in words) (healthy subjects; dosis in the range of 0.5 mg/kg): not associated with an increase in symptoms
- maximum ingested volume, dose dependency (in words) (healthy subjects; higher concentration (1.5 mg/kg)): ceiling effect established
- maximum ingested volume, dose dependency (in words) (healthy subjects; lower end of the dosis range (0.15 mg/kg)): dose response effect established
- fasting volume of the colon at 0 mm pressure ([1]; 0.15 mg/kg, Part A (placebo 1 ml)): 8 mL
- fasting volume versus placebo (in words) ([1]; 0.5 mg/kg): significantly higher
- fasting volume of the colon at 0 mm pressure ([1]; 0.5 mg/kg, Part A (placebo 1 ml)): 21 mL
- perception of distension (in words) ([1]; 0.5 mg/kg, low pressure (8 mm Hg), effect decreases by increasing pressure): significantly reduced
- fasting volume of the colon at 0 mm pressure ([1]; 1.5 mg/kg, Part B (placebo 6 ml)): 24 mL
- pain to distension (VAS score) ([1]; 8 mm Hg, 0.15 mg/kg, Part A (placebo 22)): 25
- sensation to distension (VAS score) ([1]; 8 mm Hg, 0.15 mg/kg, Part A (placebo 37)): 38
- pain to distension (VAS score) ([1]; 8 mm Hg, 0.5 mg/kg, Part A (placebo 22)): 18
- sensation to distension (VAS score) ([1]; 8 mm Hg, 0.5 mg/kg, Part A (placebo 37)): 26
- pain to distension (VAS score) ([1]; 8 mm Hg, 1.5 mg/kg, Part B (placebo 14)): 30
- sensation to distension (VAS score) ([1]; 8 mm Hg, 1.5 mg/kg, Part B (placebo 20)): 31
- pain to distension (VAS score) ([1]; 16 mm Hg, 0.15 mg/kg, Part A (placebo 33)): 28
- sensation to distension (VAS score) ([1]; 16 mm Hg, 0.15 mg/kg, Part A (placebo 43)): 37
- pain to distension (VAS score) ([1]; 16 mm Hg, 0.5 mg/kg, Part A (placebo 33)): 28
- sensation to distension (VAS score) ([1]; 16 mm Hg, 0.5 mg/kg, Part A (placebo 43)): 37
- pain to distension (VAS score) ([1]; 16 mm Hg, 1.5 mg/kg, Part B (placebo 21)): 37
- sensation to distension (VAS score) ([1]; 16 mm Hg, 1.5 mg/kg, Part B (placebo 23)): 38
- pain to distension (VAS score) ([1]; 24 mm Hg, 0.15 mg/kg, Part A (placebo 38)): 30
- sensation to distension (VAS score) ([1]; 24 mm Hg, 0.15 mg/kg, Part A (placebo 43)): 45
- pain to distension (VAS score) ([1]; 24 mm Hg, 0.5 mg/kg, Part A (placebo 38)): 32
- sensation to distension (VAS score) ([1]; 24 mm Hg, 0.5 mg/kg, Part A (placebo 43)): 41
- pain to distension (VAS score) ([1]; 24 mm Hg, 1.5 mg/kg, Part B (placebo 30)): 40
- sensation to distension (VAS score) ([1]; 24 mm Hg, 1.5 mg/kg, Part B (placebo 42)): 41
- pain to distension (VAS score) ([1]; 32 mm Hg, 0.15 mg/kg, Part A (placebo 48)): 42
- sensation to distension (VAS score) ([1]; 32 mm Hg, 0.15 mg/kg, Part A (placebo 54)): 53
- pain to distension (VAS score) ([1]; 32 mm Hg, 0.5 mg/kg, Part A (placebo 48)): 38
- sensation to distension (VAS score) ([1]; 32 mm Hg, 0.5 mg/kg, Part A (placebo 54)): 47
- pain to distension (VAS score) ([1]; 32 mm Hg, 1.5 mg/kg, Part B (placebo 43)): 47
- sensation to distension (VAS score) ([1]; 32 mm Hg, 1.5 mg/kg, Part B (placebo 51)): 43
- perception of pain (in words) ([1]; Barostat test, no dose stated): no significant reduction in the perception of pain could be observed
- scores for pain and sensation versus placebo (in words) ([1]; higher doses (1.5 mg/kg)): significantly higher scores for pain and sensation were observed versus placebo
